Where two headings read alike, the source gives them in different places. Marks after values point to notes of the source that are not given here.
Molecular target: T1, human FXIIIa (Homo sapiens, UniProt P00488)
T1 construct: purchased Haematologic Technologies (Essex Junction, VT)
T1 sequence (P00488 39-732 limits assumed): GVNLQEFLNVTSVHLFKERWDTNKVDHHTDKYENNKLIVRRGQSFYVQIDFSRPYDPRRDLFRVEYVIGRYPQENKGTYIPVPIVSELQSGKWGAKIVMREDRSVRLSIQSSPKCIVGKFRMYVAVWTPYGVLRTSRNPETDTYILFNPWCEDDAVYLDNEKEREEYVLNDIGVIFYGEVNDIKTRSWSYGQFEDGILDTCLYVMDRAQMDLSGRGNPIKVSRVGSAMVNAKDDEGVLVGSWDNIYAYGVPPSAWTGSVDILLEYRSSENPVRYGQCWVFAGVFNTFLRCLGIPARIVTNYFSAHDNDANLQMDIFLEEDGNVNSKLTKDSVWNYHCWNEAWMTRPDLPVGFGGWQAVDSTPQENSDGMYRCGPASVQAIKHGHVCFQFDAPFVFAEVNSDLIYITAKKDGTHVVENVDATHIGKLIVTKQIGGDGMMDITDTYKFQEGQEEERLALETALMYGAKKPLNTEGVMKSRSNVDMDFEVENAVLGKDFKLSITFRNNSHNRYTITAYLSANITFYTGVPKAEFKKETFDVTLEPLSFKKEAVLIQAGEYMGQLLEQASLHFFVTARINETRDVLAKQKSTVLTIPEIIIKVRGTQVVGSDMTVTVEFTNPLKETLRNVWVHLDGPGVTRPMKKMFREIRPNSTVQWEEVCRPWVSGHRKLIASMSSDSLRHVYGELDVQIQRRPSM
Assay: bisubstrate, fluorescence-based transglutamination assay (dansylcadaverine / N,N-dimethylcasein)
Format: biochemical
Settings: pH 8.0, 37°C; for inhibition at 20 µM: pH 8, 20 μM
Description: The library of sulfated molecules was screened for inhibition of human FXIIIa using a modified bisubstrate, fluorescence-based transglutamination assay, as described earlier. Dansylcadaverine and N,N-dimethyl-casein were used as two substrates, which upon FXIIIa-dependence conjugation show a marked increase in fluorescence at 550 nm (λEX = 360 nm). Initial screening was performed at 200 μM NSGM concentration (1–15) or 50–1110 μM GAG concentration (16–22) (Table 1). At these levels, none of GAGs inhibited FXIIIa by more than 5%. […] Trimeric scaffolds 13 and 14 inhibited FXIIIa by 94% and 29%, respectively. […] To identify promising NSGMs from these, screening was performed at a lower concentration (20 μM).
Direct inhibition of human FXIIIa was measured spectrofluorometrically by a bisubstrate, fluorescence-based transglutamination assay at pH 8.0 and 37°C on a microplate reader (FlexStation III, Molecular Devices) (modified from earlier reports). Briefly, to each well of a 96-well microplate containing 80 μL of 50 mM TrisHCl buffer, pH 8.0, containing 100 mM NaCl, 10 mM CaCl2, and 2 mg/mL dimethylcasein was added 5 μL potential NSGM-based inhibitor (0–20 mM aqueous solution) or vehicle, 5 μL DTT (20 mM), and 5 μL enzyme (0.12–1.2 μM) at 37°C. After 5 min incubation, 5 μL of dansylcadaverine (2.5 mM) was rapidly added and the residual enzyme activity was measured from the initial rate of increase in RFU (λEM = 550 nm, λEX = 360 nm). Relative residual enzyme activity (Y) as a function of the concentration of sulfated molecule was fitted using logistic Eq 1 to obtain the potency (IC50), efficacy (ΔY) and Hill slope (HS) of inhibition. In this equation, YM and Yo are the maximal and minimal values of Y.

[1] = pH 8, 200 μM, read-out: FXIIIa inhibition at 200 μM (%)

Row | SMILES | inhibition at 200 µM [1] [%] | inhibition at 20 µM [%] | other results
1 | O=c1c(OS(=O)(=O)O)c(-c2ccc(OS(=O)(=O)O)c(OS(=O)(=O)O)c2)oc2cc(OS(=O)(=O)O)cc(OS(=O)(=O)O)c12 [Molecule 1] | – | – | FXIIIa inhibition at 200 μM (%): 31 ± 4^b %; inhibition at 200 µM (pH 8, read-out: FXIIIa inhibition at 200 μM (%), 200 μM): ~30%
2 | CO[C@H]1O[C@H](COS(=O)(=O)O)[C@@H](O[C@@H]2O[C@@H](C(=O)O)[C@@H](O[C@H]3O[C@H](COS(=O)(=O)O)[C@@H](O[C@@H]4O[C@H](C(=O)O)[C@@H](O[C@H]5O[C@H](COS(=O)(=O)O)[C@@H](O)[C@H](O)[C@H]5NS(=O)(=O)O)[C@H](O)[C@H]4O)[C@H](OS(=O)(=O)O)[C@H]3NS(=O)(=O)O)[C@H](O)[C@H]2OS(=O)(=O)O)[C@H](O)[C@H]1NS(=O)(=O)O [Molecule 18, fondaparinux, reference compound] | – | – | inhibition at 360 µM (pH 8, at 360 μM): ~0%
3 | O=c1c(OS(=O)(=O)O)c(-c2ccc(OS(=O)(=O)O)c(OS(=O)(=O)O)c2)oc2cc(OS(=O)(=O)O)cc(OCCOc3cc(OS(=O)(=O)O)cc4oc(-c5ccc(OS(=O)(=O)O)c(OS(=O)(=O)O)c5)c(OS(=O)(=O)O)c(=O)c34)c12 [Molecule 3] | 65 ± 3 | 27 to 40 | FXIIIa inhibition at 20 μM (%) (20 μM): 26 ± 2%
4 | O=c1c(OS(=O)(=O)O)c(-c2ccc(OS(=O)(=O)O)c(OC/C=C/COc3cc(-c4oc5cc(OS(=O)(=O)O)cc(O)c5c(=O)c4OS(=O)(=O)O)ccc3OS(=O)(=O)O)c2)oc2cc(OS(=O)(=O)O)cc(O)c12 [Molecule 8] | 84 ± 5 | – | –
5 | O=S(=O)(O)Oc1cc2c(c(OS(=O)(=O)O)c1)C[C@H](OS(=O)(=O)O)[C@@H](c1ccc(OS(=O)(=O)O)c(OS(=O)(=O)O)c1)O2 [Molecule 2] | ~30 | – | FXIIIa inhibition at 200 μM (%): 32 ± 6%
6 | NC(=O)CI [IAA, Iodoacetamide, reference compound] | – | – | HS, Hill slope (FXIIIa): 0.8 ± 0.2; IC50: 2900 ± 400 nM; ΔY, efficacy (FXIIIa): 105 ± 10%; ΔY, efficacy (FXIIIa) (listed as Iodoacetamide): ~ 100%
7 | O=c1c(OS(=O)(=O)O)c(-c2ccc(OS(=O)(=O)O)c(OS(=O)(=O)O)c2)oc2cc(OS(=O)(=O)O)cc(OCCCCOc3cc(OS(=O)(=O)O)cc4oc(-c5ccc(OS(=O)(=O)O)c(OS(=O)(=O)O)c5)c(OS(=O)(=O)O)c(=O)c34)c12 [Molecule 6] | 89 ± 5 | 40 ± 3 | –

Further lines, with some results ahead:

Row | inhibition at 200 µM [1] [%] | inhibition at 20 µM [%] | SMILES | other results
8 | ~17 | – | O=S(=O)(O)OC[C@H]1O[C@@](COS(=O)(=O)O)(O[C@H]2O[C@H](COS(=O)(=O)O)[C@@H](OS(=O)(=O)O)[C@H](OS(=O)(=O)O)[C@H]2OS(=O)(=O)O)[C@@H](OS(=O)(=O)O)[C@@H]1OS(=O)(=O)O [Molecule 22, sucrose octasulfate, reference compound] | –
9 | 58 ± 4 | 31 ± 3 | O=c1c(OS(=O)(=O)O)c(-c2ccc(OS(=O)(=O)O)c(OS(=O)(=O)O)c2)oc2cc(OS(=O)(=O)O)cc(OC/C=C/COc3cc(OS(=O)(=O)O)cc4oc(-c5ccc(OS(=O)(=O)O)c(OS(=O)(=O)O)c5)c(OS(=O)(=O)O)c(=O)c34)c12 [Molecule 7] | –
10 | 67 ± 5 | – | O=c1c(OS(=O)(=O)O)c(-c2ccc(OS(=O)(=O)O)c(OS(=O)(=O)O)c2)oc2cc(OS(=O)(=O)O)cc(OCCCOc3cc(OS(=O)(=O)O)cc4oc(-c5ccc(OS(=O)(=O)O)c(OS(=O)(=O)O)c5)c(OS(=O)(=O)O)c(=O)c34)c12 [Molecule 4] | –
